Measured values from publication PMC10945559, “Forgotten Natural Products: Semisynthetic Development of Blasticidin S As an Antibiotic Lead” (ACS Medicinal Chemistry Letters, 2024).
≈ marks a conversion by molar mass, not a printed value. Like-named read-outs stand apart in the source and are kept apart here.

Legend:
in vitro = type: cell-based, human; details: human; MRC-5 (lung fibroblast); 24 h; one biological replicate (n = 3); read-out: CC50 for human cells
Protocol: (§1) as a range from biological replicates. Inhibition curves were generated using Prism (GraphPad).
(§2) The IC50 values reported in Table 2 are the average of the two biological replicates ± standard […]
(§3) Cytotoxicity Assay Procedure
(§4) Human lung fibroblast cells, MRC -5 (CCL-171), were cultured at 37℃ with 5% CO2 and were plated at 5000 cells/well in a 96 -well plate. Compounds 1, 2, and 15-22 were initially prepared at concentrations of 5.12 mg/mL in a vehicle of 50% DMSO. Dilutions of the compounds (4 – 512 μg/mL) were then prepared in growth medium containing Dulbecco’s modified Eagle’s medium (DMEM) with high glucose, L -glutamine, and sodium pyruvate supplemented with 10% fetal bovine serum (FBS), 1% non -essential amino acids, and 0.1% gentamicin sulfate, and 25mM HEPES. The vehicle (50% DMSO) was also prepared via the sa me dilution series to serve as a control. Growth media was removed from the cells and replaced with the same volume of each compound dilution. Cells were incubated for 24 h , after which CellTiter 96® AQueous One Solution Reagent was added to each well as recommended by the manufacturer’s protocol (Promega CellTiter 96 AQueous One Solution Cell Proliferation Assay) and further incubated for 4 h. After incubation, absorbance was measured at 490 nm on an Infinite M plex multimode microplate reader with i -control Tecan software. Viability was calculated by subtracting media only absorbance values and normalizing to the vehicle control at each concentration. The presented data is one assay performed in triplicate that is representative of multiple trials. Data for the 256 and 512 μg/mL concentrations were removed from analysis due to vehicle toxicity […]
(§5) CC50 concentrations were determined via the ED50 Plus v1.0 software (https://archive.org/details/ed50v10_zip).
(§6) Figure S41. The effect of compounds on cell viability. The lines represent non -linear regression curves, and error bars represent means ± […]
(§7) SD (n=3). […]

[1] = system: MRC-5 lung fibroblast cells; assay: in vitro; type: cell-based, human; details: average of SI (CC50/IC50) over the bacteria tested
Protocol: as §1, §2, §3, §4, §5, §6, §7

Pseudomonas aeruginosa = assay: Broth microdilution antibacterial assay; type: cell-based; details: for Selectivity index (CC50/IC50): MRC-5 CC50 / P. aeruginosa IC50; for IC50 / MIC: Pseudomonas aeruginosa; for IC50: average of two biological replicates ± S.D., read-out: IC50
Protocol: (§8) Antibacterial Assay Procedure
(§9) Broth Microdilution Assays
(§10) Media and solutions were autoclaved or sterile filtered prior to use and manipulations were carried out in a laminar flow hood. Antibacterial testing was performed in polypropylene 96 -well flat bottom plates. The minimal inhibitory concentration of blasticidin S ( 1) hydrochloride, P10 (2), and derivatives 15–22 were assessed against Staphylococcus aureus ΔNorA, S. aureus 8810, methicillin-resistant S. aureus (MRSA) ATCC 43300, Enterococcus faecalis ATCC 29212, vancomycin-resistant Enterococcus, Klebsiella pneumoniae ATCC 29665, Pseudomonas aeruginosa, and Acinetobacter baumannii ATCC 17978 using serial dilutions. Doxycycline (Gold Bio) as a positive control and the vehicle as a negative control. Stock solutions of each compound were prepared at 5.12 mg/mL in 50% DMSO/water and serially diluted in 50% DMSO/water to create master plates. From the master plates, 10 μL of each dilution was applied to test plates using a Bravo automated liquid transfer system (Agilent). Bacteria previously grown overnight (37 °C, 120 – 200 RPM), in LB broth were diluted to an OD600 of 0.0 5 in cation-adjusted Mueller-Hinton broth, grown to an OD600 of ~0.5, and diluted to an OD600 of 0.004 in cation-adjusted Mueller-Hinton broth. These diluted cultures were applied to the test plates (190 μL per test well) resulting in final concentrations of the test compounds of 256–2 μg/mL. Growth controls (wells with inoculated media but no vehicle or test compounds) were included to assess any potential toxicity from the vehicle. The plates were incubated at 37 °C for 16–18 h, except for VRE and E. faecalis, which were incubated at 37 °C for 24 h. Inhibition was determined by measuring the optical density at 600 nm (OD600) with a Cytation 3 plate reader (BioTek). The optical density measurements were normalized to the positive and negative controls and the vehicle and growth controls were compared and found to be indistinguishable, indicating no toxicity from the vehicle used. The MIC was the lowest concentration that inhibited >90% of growth. Two biological replicates were performed in duplicate. MIC values are reported […]
as §1, §2, §3, §4, §5

[2] = system: Klebsiella pneumoniae ATCC 29665; assay: Broth microdilution antibacterial assay; type: cell-based; details: for IC50 / MIC: Klebsiella pneumoniae, ATCC29665, K. pneumoniae; for IC50: average of two biological replicates ± S.D., read-out: IC50; for MIC: lowest concentration inhibiting >90% of growth, range from biological replicates, read-out: MIC; for Selectivity index (CC50/IC50): MRC-5 CC50 / K. pneumoniae IC50
Protocol: as §8, §9, §10, §1, §2, §3, §4, §5

[3] = system: Staphylococcus aureus ΔNorA; assay: Broth microdilution antibacterial assay; type: cell-based; details: for Selectivity index (CC50/IC50): MRC-5 CC50 / S. aureus ΔNorA IC50; for IC50 / MIC: Staphylococcus aureus
Protocol: as §8, §9, §10, §1, §2, §3, §4, §5

[4] = system: Enterococcus faecalis ATCC 29212; assay: Broth microdilution antibacterial assay; type: cell-based; details: for MIC / IC50: Enterococcus faecalis, ATCC29212; for IC50: average of two biological replicates ± S.D. (18: one biological replicate), read-out: IC50; for Selectivity index (CC50/IC50): MRC-5 CC50 / E. faecalis IC50
Protocol: as §8, §9, §10, §1, §2, §3, §4, §5

[5] = system: vancomycin-resistant Enterococcus (VRE); assay: Broth microdilution antibacterial assay; type: cell-based; details: for MIC / IC50: Enterococcus, VRE; for IC50: average of two biological replicates ± S.D., read-out: IC50; for Selectivity index (CC50/IC50): MRC-5 CC50 / VRE IC50
Protocol: as §8, §9, §10, §1, §2, §3, §4, §5

[6] = system: Acinetobacter baumannii ATCC 17978; assay: Broth microdilution antibacterial assay; type: cell-based; details: for IC50 / MIC: Acinetobacter baumannii, ATCC17978; for IC50: average of two biological replicates ± S.D., read-out: IC50; for Selectivity index (CC50/IC50): MRC-5 CC50 / A. baumannii IC50
Protocol: as §8, §9, §10, §1, §2, §3, §4, §5

[7] = system: methicillin-resistant S. aureus (MRSA) ATCC 43300; assay: Broth microdilution antibacterial assay; type: cell-based, Staphylococcus aureus; details: for Selectivity index (CC50/IC50): MRC-5 CC50 / MRSA IC50; for IC50 / MIC: Staphylococcus aureus; for IC50: average of two biological replicates ± S.D., read-out: IC50
Protocol: as §8, §9, §10, §1, §2, §3, §4, §5

S. aureus 8810 = assay: Broth microdilution antibacterial assay; type: cell-based, Staphylococcus aureus; details: for Selectivity index (CC50/IC50): MRC-5 CC50 / S. aureus IC50; for IC50 / MIC: Staphylococcus aureus, 8810; for IC50: average of two biological replicates ± S.D., read-out: IC50
Protocol: as §8, §9, §10, §1, §2, §3, §4, §5

[8] = E. faecalis, 24 h, lowest concentration inhibiting >90% of growth, range from biological replicates, read-out: MIC
[9] = average MIC, Table S3, read-out: Average Activity against E. faecalis
[10] = average MIC, Table S3, read-out: Average Activity against VRE
[11] = 24 h, lowest concentration inhibiting >90% of growth, range from biological replicates, read-out: MIC
[12] = MRSA, lowest concentration inhibiting >90% of growth, range from biological replicates, read-out: MIC
[13] = average MIC, Table S3, read-out: Average Activity against MRSA
[14] = S. aureus, lowest concentration inhibiting >90% of growth, range from biological replicates, read-out: MIC
[15] = average MIC, Table S3, read-out: Average Activity against S. aureus

With `CN(CC[C@H](N)CC(=O)N[C@H]1C=C[C@H](n2ccc(N)nc2=O)O[C@@H]1C(N)=O)C(=N)N` [Compound 2, P10] the CC50 at 24 h (in vitro) was 5.9 µg/mL (≈ 14 µM), the average selectivity index [1] was 0.8 and the “Selectivity index (CC50/IC50)” value (Pseudomonas aeruginosa) was 0.4. For the same molecule, the IC50 (Pseudomonas aeruginosa; P. aeruginosa) was 14.6 ± 1.5 µg/mL (≈ 34.6 µM), the MIC (Pseudomonas aeruginosa; P. aeruginosa, lowest concentration inhibiting >90% of growth, range from biological replicates, read-out: MIC) was 64 µg/mL (≈ 152 µM) and the IC50 [2] was 7.6 ± 1.3 µg/mL (≈ 18 µM). For the same molecule, the MIC [2] was 32 µg/mL (≈ 75.9 µM), the “Selectivity index (CC50/IC50)” value [2] was 0.8 and the “Selectivity index (CC50/IC50)” value [3] was 0.4. It also gave an IC50 [3] of 14 ± 0.3 µg/mL (≈ 33.2 µM), an MIC [3] of 64 to 128 µg/mL (≈ 152 to 304 µM) and an MIC [4, 8] of 16 to 32 µg/mL (≈ 38 to 75.9 µM). The IC50 ([4]; E. faecalis) was 5.1 ± 4.3 µg/mL (≈ 12.1 µM), the MIC [4, 9] was 16 µg/mL (≈ 38 µM) and the “Selectivity index (CC50/IC50)” value [4] was 1.2. It also gave an MIC [5, 10] of 64 µg/mL (≈ 152 µM), an MIC [5, 11] of 64 µg/mL (≈ 152 µM) and an IC50 [5] of 15 ± 8.6 µg/mL (≈ 35.6 µM). For the same molecule, the “Selectivity index (CC50/IC50)” value [5] was 0.4, the IC50 ([6]; A. baumannii) was 4.5 ± 0.4 µg/mL (≈ 10.7 µM) and the MIC ([6]; A. baumannii, lowest concentration inhibiting >90% of growth, range from biological replicates, read-out: MIC) was 16 µg/mL (≈ 38 µM). The “Selectivity index (CC50/IC50)” value [6] was 1.3, the “Selectivity index (CC50/IC50)” value [7] was 0.8 and the IC50 ([7]; MRSA) was 7 ± 1 µg/mL (≈ 16.6 µM). For the same molecule, the MIC [7, 12] was 32 µg/mL (≈ 75.9 µM), the MIC [7, 13] was 32 µg/mL (≈ 75.9 µM) and the “Selectivity index (CC50/IC50)” value (S. aureus 8810) was 1.3. For the same molecule, the IC50 (S. aureus 8810; S. aureus) was 4.7 ± 1 µg/mL (≈ 11.2 µM), the MIC (S. aureus 8810; [14]) was 32 µg/mL (≈ 75.9 µM) and the MIC (S. aureus 8810; [15]) was 32 µg/mL (≈ 75.9 µM).
In the case of `CCNC(=O)[C@H]1O[C@@H](n2ccc(N)nc2=O)C=C[C@@H]1NC(=O)C[C@@H](N)CCN(C)C(=N)N` [Compound 16], the CC50 at 24 h (in vitro) is reported as 137 µg/mL (≈ 305 µM), the “Selectivity index (CC50/IC50)” value (Pseudomonas aeruginosa) is reported as 6.3 and the MIC (Pseudomonas aeruginosa) is reported as 64 to 128 µg/mL (≈ 142 to 285 µM). For the same molecule, the IC50 (Pseudomonas aeruginosa; P. aeruginosa) was 21.8 ± 2.7 µg/mL (≈ 48.5 µM), the IC50 [2] was 60.1 ± 6.2 µg/mL (≈ 134 µM) and the MIC [2] was 256 µg/mL (≈ 570 µM). For the same molecule, the “Selectivity index (CC50/IC50)” value [2] was 2.3, the “Selectivity index (CC50/IC50)” value [3] was 7.0 and the IC50 [3] was 19.6 ± 1.8 µg/mL (≈ 43.6 µM). The MIC [3] was 128 µg/mL (≈ 285 µM), the MIC [4, 8] was 16 to 32 µg/mL (≈ 35.6 to 71.2 µM) and the IC50 ([4]; E. faecalis) was 9.6 ± 4 µg/mL (≈ 21.4 µM). For the same molecule, the MIC [4, 9] was 16 µg/mL (≈ 35.6 µM), the “Selectivity index (CC50/IC50)” value [4] was 14 and the MIC [5, 10] was 64 µg/mL (≈ 142 µM). For the same molecule, the MIC [5, 11] was 64 µg/mL (≈ 142 µM), the IC50 [5] was 20.2 ± 8.1 µg/mL (≈ 44.9 µM) and the “Selectivity index (CC50/IC50)” value [5] was 6.8. The MIC [6] was 128 µg/mL (≈ 285 µM), the IC50 ([6]; A. baumannii) was 35.7 ± 11 µg/mL (≈ 79.4 µM) and the “Selectivity index (CC50/IC50)” value [6] was 3.8. The “Selectivity index (CC50/IC50)” value [7] was 9.2, the IC50 ([7]; MRSA) was 14.9 ± 1.6 µg/mL (≈ 33.1 µM) and the MIC [7, 12] was 32 µg/mL (≈ 71.2 µM). The MIC [7, 13] was 32 µg/mL (≈ 71.2 µM), the “Selectivity index (CC50/IC50)” value (S. aureus 8810) was 26 and the IC50 (S. aureus 8810; S. aureus) was 5.3 ± 1.5 µg/mL (≈ 11.8 µM). The MIC (S. aureus 8810; [14]) was 32 µg/mL (≈ 71.2 µM) and the MIC (S. aureus 8810; [15]) was 32 µg/mL (≈ 71.2 µM).
